Article PMC7054763, “Sulfonamide-Based Azaheterocyclic Schiff Base Derivatives as Potential Carbonic Anhydrase Inhibitors: Synthesis, Cytotoxicity, and Enzyme Inhibitory Kinetics” (BioMed Research International, 2020)
Entries after “also recorded” stand apart in the source; their conditions may differ.

Key:
carbonic anhydrase [1] = target: T1, carbonic anhydrase (Bos taurus, UniProt P00921); test: Carbonic anhydrase (CA) assay; assay type: biochemical; details: bovine enzyme, p-nitrophenyl acetate substrate, pH 7.6, 25°C; for IC50: read-out: Carbonic anhydrase IC50 ± SEM
T1 construct: purchased Sigma-Aldrich

carbonic anhydrase [2] = target: T1, carbonic anhydrase; test: Kinetic analysis (Lineweaver-Burk) of carbonic anhydrase inhibition; assay type: biochemical, bovine
Experimental: CA inhibition has been determined using some reported methods with a few modifications. […] In brief, 120 microliters of 50 mM Tris-Sulfate buffer (with a pH 7.6 comprising 0.1 mM ZnCl2), twenty μL of (50 U) bovine enzyme, and 20 μL of inhibitor per well makes the reaction mixture. Mixture contents were mixed well before preincubation for ten minutes at 25°C. Para-nitrophenyl acetate substrate (6 mM stock solution by using <5% acetonitrile present in buffer and has been used fresh each time) and forty microliters were taken I each well to reach 0.6 mM concentration per well. The volume of the reaction mixture was diluted to 200 μL. Contents were well mixed after thirty-minute incubation at 25°C, and absorbance results were determined at 348 nm with a microplate reader (SpectraMax ABS, USA). Standard used was acetazolamide. Experiments were performed in triplicate with each concentration. GraphPad Prism 5.0 (GraphPad, San Diego, CA, USA) has been used to calculate IC50 by nonlinear regression. Inhibition (%) = [(B − S)/B] × 100, where S and B are the absorbances of the samples and blank.
To determine the kinetic parameters of compound 3c, a sequence of experiments have been done. Compound 3c was selected on the basis of IC50 value which was used at different concentrations (0.0, 7.1, 14.2, and 28.4 μM, respectively); the substrate (p-nitrophenyl acetate) concentrations were varied (2, 1, 0.5, 0.25, 0.125, and 0.0625 mM). Other all experimental conditions were just similar as described in the carbonic anhydrase assay segment. The maximum initial velocity has been measured using the starting linear part of absorbance values up to ten minutes at a 1-minute interval. Plots of Lineweaver–Burk on graph between inverse of velocities (1/V) and inverse of concentration of substrate 1/[S] mM^−1 were used in order to find enzyme inhibition type. EI dissociation constant Ki was found by the secondary plot of concentrations of inhibitors versus 1/V.

MCF-7 cells = test: Cell viability assay (MTT) using MCF-7; assay type: cell-based, human; details: MCF-7, 24 h, 0, 125 and 250 μM
Experimental: (§1) The experiment for cell viability studies using MTT (3-(4,5-dimethylthiazol-2yl)-2,5-diphenyltetrazolium bromide) setup has been done to find cytotoxic effects of target compounds. The human keratinocyte (HaCaT) and MCF-7 were cultivated separately in 96-well plates (CGP, gamma sterilized, SPL Korea) with use of complete DMEM consisting of ten percent fetal bovine serum and one percent antibiotics. 5∗10^4 cells per well were incubated for 24 hours before their exposure to a series of dilutions of target derivatives. The analogue 3c was solubilized in DMSO, and DMEM was used for dilution to achieve final concentrations 0, 125, and 250 μM. Then, in the presence of test compounds, cells were incubated again for twenty-four hours at 37 C with 5% carbon dioxide. Now, through the MTT setup, absorbance values at 570 nm were determined by ELISA reader and each experiment was repeated thrice. All data was shown in a mean ± standard deviation pattern, and Student's t-tests were performed to analyze significance of the data. Statistical significance has been assumed (p < 0.005).

[3] = tested on: human keratinocyte (HaCaT) cells; test: Cell viability assay (MTT) using HaCaT; assay type: cell-based
Experimental: as §1

T1 sequence (P00921 whole entry): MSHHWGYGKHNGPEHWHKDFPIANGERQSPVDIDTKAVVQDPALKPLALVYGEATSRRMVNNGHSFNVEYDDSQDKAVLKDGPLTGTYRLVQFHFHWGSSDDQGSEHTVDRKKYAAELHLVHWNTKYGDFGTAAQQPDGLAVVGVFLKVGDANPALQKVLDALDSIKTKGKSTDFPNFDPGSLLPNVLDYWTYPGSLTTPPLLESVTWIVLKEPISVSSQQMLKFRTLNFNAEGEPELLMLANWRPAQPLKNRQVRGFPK

Compound	Carbonic anhydrase IC50 ± SEM (carbonic anhydrase [1])	melting point	IC50 (carbonic anhydrase [1])	other results
O=S(=O)(N/N=C/c1cccnc1)c1ccccc1 [Compound 3a, (E)-N′-(pyridin-3-ylmethylene)benzenesulfonohydrazide]	No inhibition	176 to 178 °C	–	–
Cc1cc(C)c(S(=O)(=O)N/N=C/c2cccnc2)c(C)c1 [Compound 3b, (E)-2,4,6-trimethyl-N′-(pyridin-3-ylmethylene)benzenesulfonohydrazide]	No inhibition	173 to 176 °C	–	–
Cc1ccc(S(=O)(=O)N/N=C/c2cccnc2)cc1 [Compound 3c, (E)-4-methyl-N′-(pyridin-3-ylmethylene)benzenesulfonohydrazide]	–	168 to 171 °C	0.84 ± 0.12 µM	Vmax (carbonic anhydrase [2]; 3c 7.1 μM): 0.01006 ΔA/min; Vmax (carbonic anhydrase [2]; 3c 14.2 μM): 0.004552 ΔA/min; Vmax (carbonic anhydrase [2]; 3c 28.4 μM): 0.002293 ΔA/min; Inhibition type (carbonic anhydrase [2]; Lineweaver-Burk plots): noncompetitive mode of inhibition; also recorded: noncompetitively; Ki (carbonic anhydrase [2]; secondary plot of Lineweaver-Burk slope versus 3c concentration, read-out: Ki (EI dissociation constant)): 8.6 µM; Cytotoxicity (cell viability) (MCF-7 cells): caused cytotoxicity in a concentration-dependent manner; Cytotoxic effects, HaCaT compared with MCF-7 ([3]; HaCaT versus MCF-7, 250 μM): smaller in case of human keratinocyte (HaCaT) at concentration 250 μM than MCF-7; also recorded: less cytotoxic effects on human keratinocyte cell lines (HaCaT) compared to breast cancer cell lines MCF-7; Cytotoxicity (cell viability) ([3]; HaCaT, 24 h, 0, 125 and 250 μM): caused cytotoxicity in a concentration-dependent manner
CC(=O)Nc1ccc(S(=O)(=O)N/N=C/c2cccnc2)cc1 [Compound 3d, (E)-N-(4-((2-(pyridin-3-ylmethylene)hydrazinyl)sulfonyl)phenyl)acetamide]	No inhibition	181 to 184 °C	–	–
Cc1cc(C)c(S(=O)(=O)N/N=C/c2ccncc2)c(C)c1 [Compound 3e, (E)-2,4,6-trimethyl-N′-(pyridin-4-ylmethylene)benzenesulfonohydrazide]	–	160 to 164 °C	18.9 ± 0.85 µM	–
Cc1ccc(S(=O)(=O)N/N=C/c2ccncc2)cc1 [Compound 3f, (E)-4-methyl-N′-(pyridin-4-ylmethylene)benzenesulfonohydrazide]	No inhibition	148 to 152 °C	–	–

More lines, main results first:

Carbonic anhydrase IC50 ± SEM (carbonic anhydrase [1])	melting point	IC50 (carbonic anhydrase [1])	Compound	other results
–	159 to 161 °C	59.1 ± 1.68 µM	Cc1ccc(S(=O)(=O)N/N=C/c2ccccn2)cc1 [Compound 3g, (E)-4-methyl-N′-(pyridin-2-ylmethylene)benzenesulfonohydrazide]	–
–	156 to 158 °C	31.8 ± 1.07 µM	O=S(=O)(N/N=C/c1ccc[nH]1)c1ccccc1 [Compound 3h, (E)-N′-((1H-pyrrol-2-yl)methylene)benzenesulfonohydrazide]	–
No inhibition	146 to 148 °C	–	Cc1ccc(S(=O)(=O)N/N=C/c2ccc[nH]2)cc1 [Compound 3i, (E)-N′-((1H-pyrrol-2-yl)methylene)-4-methylbenzenesulfonohydrazide]	–
No inhibition	176 to 179 °C	–	COc1ccc(S(=O)(=O)N/N=C/c2cc[nH]c2)cc1 [Compound 3j, (E)-N′-((1H-pyrrol-3-yl)methylene)-4-methoxybenzenesulfonohydrazide]	–
